Source: patent US6875761B2 (Eisai Co., Ltd., priority 1997, dated 2005)
Where a name gives a salt, the structure may show the parent alone.

Row | melting point | Structure (SMILES)
1 | 116 to 117.5 °C | CCN1CCN(c2nc(-c3ccc(CCC(C)(C)O)cc3)cc3sccc23)CC1 (as salt: hydrochloride) [Example 291, 4-[4-ethylpiperazin-1-yl)-6-[4-(3-hydroxy-3-methylbutyl)phenyl]thieno[3,2-c]pyridine dihydrochloride]
2 | 113 to 115 °C | CCN1CCN(c2nc(-c3ccc(OC)cc3)cc3ccsc23)CC1 (as salt: hydrochloride) [Example 459, 7-(4-ethylpiperazin-1-yl)-5-(4-methoxyphenyl)thieno[2,3-c]pyridine dihydrochloride]
3 | 143 to 144 °C | CCN1CCN(c2nc(-c3ccc(OC4CCCCC4O)cc3)cc3ccccc23)CC1 (centres unmarked) (as salt: hydrochloride) [Example 426, 1-(4-ethylpiperazin-1-yl)-3-[4-(2-hydroxycyclohexyloxy)phenyl]isoquinoline Hydrochloride]
4 | 112.5 to 114 °C | CCN1CCN(c2nc(-c3ccc(OCCOC)c(F)c3)cc3ccccc23)CC1 (as salt: hydrochloride) [Example 367, 1-(4-ethylpiperazin-1-yl)-3-(3-fluoro-4-methoxyethoxyphenyl)isoquinoline dihydrochloride]
5 | 138 to 141 °C | CCCNC(=O)Cc1ccc(-c2cc3ccccc3c(N3CCN(CC)CC3)n2)cc1 (as salt: hydrochloride) [Example 88, 3-(4-Propylaminocarbonylmethylphenyl)-1-(4-ethylpiperazin-1-yl)isoquinoline Hydrochloride]
6 | 124 to 125 °C | CCN1CCCN(c2nc(-c3ccc(OC)cc3)cc3ccccc23)CC1 (as salt: hydrochloride)
7 | 223 to 227 °C | CCN1CCN(c2nc(-c3ccc4c(c3)OCO4)cc3ccccc23)CC1 (as salt: hydrochloride) [Example 46, 3-(3,4-Methylenedioxyphenyl)-1-(4-Ethylpiperazin-1-Yl)Isoquinoline Hydrochloride]
8 | 180 to 182 °C | CCN1CCN(c2nc(C=C(COC)c3ccccc3)cc3ccccc23)CC1 (stereo in doubt) (as salt: oxalate) [Example 208, 3-[(E)-2-Methoxymethyl-2-Phenylethenyl]-1-(4-Ethylpiperazin-1-Yl)Isoquinoline Oxalate]
9 | 237 to 241 °C | CCN1CCN(c2nc(-c3ccc(OC)cc3)cc3cccc(OC)c23)CC1 (as salt: hydrochloride)
10 | 180 to 182 °C | CCN1CCN(c2nc(/C=C/c3cccc(N4CCOCC4)c3)cc3ccccc23)CC1 (as salt: oxalate) [Example 204, 3-{(E)-2-[3-(4-Morpholinyl)Phenyl]Ethenyl}-1-(4-Ethylpiperazin-1-Yl)Isoquinoline Oxalate]
11 | 213 to 215 °C (dec.) | CCN1CCN(c2nc(-c3ccc(CCO)c(F)c3)cc3ccccc23)CC1 (as salt: hydrochloride) [Example 385, 1-(4-Ethylpiperazin-1-yl)-3-[3-Fluoro-4-(2-Hydroxyethyl)Phenyl]Isoquinoline Dihydrochloride]
12 | 248 to 250 °C | CCN1CCN(c2nc(/C=C/c3ccc(N4CCOCC4)cc3)cc3ccccc23)CC1 (as salt: oxalate) [Example 205, 3-{(E)-2-[4-(4-Morpholinyl)Phenyl]Ethenyl}-1-(4-Ethylpiperazin-1-Yl)Isoquinoline Oxalate]
13 | 136 to 138.5 °C | CCN1CCN(c2nc(-c3ccc(S(=O)(=O)NCCO)cc3)cc3ccccc23)CC1 (as salt: hydrochloride) [Example 347, 1-(4-ethylpiperazin-1-yl)-3-{4-[N-(2-hydroxyethyl)sulfamoyl]phenyl}isoquinoline dihydrochloride]
14 | 178 to 179 °C | CCN1CCN(c2nc(-c3ccccc3OC)cc3ccc(OC)cc23)CC1 (as salt: hydrochloride)
15 | 147 to 149 °C | CCNS(=O)(=O)c1ccc(-c2cc3ccccc3c(N3CCN(CC)CC3)n2)cc1 (as salt: hydrochloride) [Example 357, 1-(4-ethylpiperazin-1-yl)-3-[4-(N-ethylsulfamoyl)phenyl]isoquinoline dihydrochloride]
16 | 141 to 143 °C | CCN1CCN(c2nc(-c3ccc4c(c3)OCCO4)cc3ccccc23)CC1 (as salt: hydrochloride) [Example 332, 1-(4-ethylpiperazin-1-yl)-3-(3,4-ethylenedioxyphenyl)isoquinoline dihydrochloride]

Row | melting point | Structure (SMILES)
17 | 120 to 128 °C | CCN1CCN(c2nc(C#CCCc3ccccc3)cc3ccccc23)CC1 (as salt: hydrochloride) [Example 182, 1-(1-Ethylpiperazin-4-Yl)-3-[4-Phenyl-1-Butynyl)Isoquinoline Dihydrochloride]
18 | 249 to 253 °C | CCN1CCN(c2nc(-c3ccc(OC)cc3)cc3c(C)cccc23)CC1 (as salt: hydrochloride)
19 | 201 to 203 °C | CCN1CCN(c2nc(-c3ccc(N4CCSCC4)nc3)cc3ccsc23)CC1 (as salt: hydrochloride) [Example 264, 5-[2-(4-thiomorpholinyl)pyridin-5-yl]-7-(4-ethylpiperazine-1-yl)thieno[2,3-c]pyridine Hydrochloride]
20 | 164 to 166 °C | COc1ccc(-c2cc3ccccc3c(N3CCN(CCC#N)CC3)n2)cc1 (as salt: hydrochloride)
21 | 110 to 112 °C | CCN1CCN(c2nc(-c3cc(F)c(OCCOC)c(F)c3)cc3ccccc23)CC1 (as salt: hydrochloride) [Example 368, 1-(4-ethylpiperazin-1-yl)-3-(3,5-difluoro-4-methoxyethoxyphenyl)isoquinoline dihydrochloride]
22 | 105 to 105.5 °C | CCN1CCN(c2nc(-c3cc(F)c(OCCF)c(F)c3)cc3ccccc23)CC1 (as salt: hydrochloride) [Example 371, 1-(4-ethylpiperazin-1-yl)-3-[3,5-difluoro-4-(2-fluoroethoxy)phenyl]isoquinoline dihydrochloride]
23 | 189 to 191 °C | CCN1CCN(c2nc(-c3cc(OC)ccc3OC)cc3ccccc23)CC1.Cl
24 | 116 to 118 °C | CCN1CCN(c2nc(-c3ccc(OCCOC)nc3)cc3ccsc23)CC1 (as salt: hydrochloride) [Example 269, 5-[2-(2-methoxyethoxy)pyridin-5-yl]-7-(4-ethylpiperazin-1-yl)-thieno[2,3-c]pyridine hydrochloride]
25 | 128 to 130 °C | CCCN1CCN(c2nc(-c3ccc(OCCO)cc3)cc3sccc23)CC1 (as salt: hydrochloride) [Example 293, 4-(4-propylpiperazin-1-yl)-6-[4-(2-hydroxyethoxy)phenyl]thieno[3,2-c]pyridine]
26 | 119 to 122 °C | CCN1CCN(c2nc(-c3ccc(CCCO)cc3)cc3cccnc23)CC1 (as salt: hydrochloride) [Example 247, 8-(1-ethylpiperazin-4-yl)-6-[4-(3-hydroxypropyl)phenyl]-1,7-naphthyridine Dihydrochloride]
27 | 176 to 179 °C | CCN1CCN(c2nc(C(=O)c3ccc(OC)cc3)cc3ccccc23)CC1 (as salt: oxalate) [Example 112, 3-(4-Methoxyphenylcarbonyl)-1-(4-ethylpiperazin-1-yl)isoquinoline Oxalate]
28 | 139 to 141 °C | CCN1CCN(c2nc(-c3ccc(C(=O)CC(C)C)cc3)cc3ccsc23)CC1 (as salt: hydrochloride) [Example 272, 7-(1-ethylpiperazin-4-yl)-5-[4-(3-methylbutanoyl)phenyl]thieno[2,3-c]pyridine dihydrochloride]
29 | 219 to 221 °C | CCN1CCN(Cc2nc(-c3ccc(OC)cc3)cc3ccccc23)CC1 (as salt: oxalate) [Example 328, 3-(4-methoxyphenyl)-1-(4-ethylpiperazin-1-yl)methylisoquinoline oxalate]
30 | 160 to 162 °C | COc1ccc(-c2cc3ccccc3c(N(C)CCN(C)C)n2)cc1 (as salt: hydrochloride) [Example 319, 1-{N-[2-(2-dimethylamino)ethyl]-N-methylamino}-3-(4-methoxyphenyl)isoquinoline dihydrochloride]
31 | 143 to 145 °C | CCNC(=O)Cc1ccc(-c2cc3ccccc3c(N3CCN(CC)CC3)n2)cc1 (as salt: hydrochloride) [Example 87, 3-(4-Ethylaminocarbonylmethylphenyl)-1-(4-ethylpiperazin-1-yl)isoquinoline Hydrochloride]
32 | 176 to 179 °C | CCN1CCN(c2nc(-c3ccc(C4=CCOCC4)cc3)cc3ccsc23)CC1 (as salt: hydrochloride) [Example 266, 5-[4-(5,6-dihydro-2H-pyran-4-yl)phenyl]-7-(4-ethylpiperazin-1-yl)thieno[2,3-c]pyridine Hydrochloride]

Row | Structure (SMILES) | melting point
33 | CCN1CCN(c2nc(-c3ccc(C(C)O)cc3)cc3sccc23)CC1 (centres unmarked) (as salt: oxalate) [Example 281, 4-(4-ethylpiperazin-1-yl)-6-[4-(1-hydroxyethyl)phenyl]thieno[3,2-c]pyridine oxalate] | 134 to 135 °C
34 | CCCNC(=O)c1ccc(-c2cc3ccccc3c(N3CCN(CC)CC3)n2)cc1 (as salt: hydrochloride) [Example 63, 1-(4-Ethylpiperazin-1-Yl)-3-(4-N-Propylaminocarbonylphenyl)Isoquinoline Hydrochloride] | 149 to 150 °C
35 | CCN1CCN(c2nc(-c3ccc(CCCO)cc3)cc3ccccc23)CC1 (as salt: hydrochloride) [Example 20, 1-(4-ethylpiperazin-1-yl)-3-[4-(3-hydroxypropyl)phenyl]isoquinoline hydrochloride] | 116 to 119 °C
36 | CCN1CCN(c2nc(C#Cc3ccccn3)cc3ccccc23)CC1 (as salt: oxalate) [Example 179, 1-(1-Ethylpiperazin-4-Yl)-3-(2-Pyridyl)Ethynylisoquinoline Oxalate] | 148 to 154 °C
37 | CCC/C(=N\O)c1ccc(-c2cc3ccccc3c(N3CCN(CC)CC3)n2)cc1 (as salt: oxalate) [Example 380, 1-(4-Ethylpiperazin-1-yl)-3-[4-(1-Hydroxyiminobutyl)Phenyl]Isoquinoline] | 179.5 to 180 °C
38 | CCN1CCN(c2nc(-c3ccc(CCCO)c(OC)c3)cc3ccccc23)CC1 (as salt: hydrochloride) [Example 33, 1-(4-ethylpiperazin-1-yl)-3-[4-(3-hydroxypropyl)-3-methoxyphenyl]isoquinoline hydrochloride] | 123 to 124 °C
